These are literature values, as cited in patent US20060177499A1, “Method for the manufacture of a pharmaceutical composition in the form of tablets containing a fibrate and tablets obtained according to the method” (priority 2003, published 2006).

The conditions of this series: long-term treatment; e.g. rhabdomyolysis, asthenia, increase of transaminases, hepatic toxicity.

On to `CC(C)OC(=O)C(C)(C)Oc1ccc(C(=O)c2ccc(Cl)cc2)cc1` [fenofibrate, Isopropyl 2-[4-(4-chlorobenzoyl)phenoxy]-2-methylpropionate], for which the adverse effects result is recorded as “not completely devoid of adverse effects”.
